According to US7105543B2, “4-, 5-, 6- and 7-indole derivatives useful for the treatment of CNS disorders” (H. Lundbeck A/S, priority 2000, dated 2006):
Like-named read-outs stand apart in the source and are kept apart here.

How the values were obtained:
[1] = molecular target: T1, human cloned dopamine D4.2 receptors expressed in CHO-cells (Homo sapiens, UniProt P21917, DEL265-296); assay: Inhibition of binding of [3H]YM-09151-2 to D4.2 receptors
T1 construct: expressed in transfected cells; host or cells: CHO cells
T1 sequence (P21917 with tags, fused parts or gaps DEL265-296): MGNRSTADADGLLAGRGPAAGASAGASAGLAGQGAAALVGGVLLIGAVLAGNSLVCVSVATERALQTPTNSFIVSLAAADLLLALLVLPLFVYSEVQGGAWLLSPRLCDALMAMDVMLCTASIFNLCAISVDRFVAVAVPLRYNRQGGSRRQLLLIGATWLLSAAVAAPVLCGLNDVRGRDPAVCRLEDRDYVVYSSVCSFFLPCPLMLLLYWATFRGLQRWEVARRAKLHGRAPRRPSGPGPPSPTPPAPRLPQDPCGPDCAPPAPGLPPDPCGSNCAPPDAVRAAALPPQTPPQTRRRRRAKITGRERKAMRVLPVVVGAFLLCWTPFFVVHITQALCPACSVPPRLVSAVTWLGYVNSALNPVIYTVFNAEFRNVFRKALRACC
Method: Inhibition of Binding of [^3H]YM-09151-2 to D4.2 Receptors
By this method, the inhibition by drugs of the binding of [^3H]YM-09151-2 (0.06 nM) to membranes of human cloned dopamine D4.2 receptors expressed in CHO-cells is determined in vitro. The method is modified from NEN Life Science Products, Inc., technical data certificate PC2533-10/96.

[2] = molecular target: T2, dopamine D2 receptor (Rattus norvegicus, UniProt P61169); assay: Inhibition of the binding of [3H]Spiperone to D2 receptors
T2 construct: from tissue
Method: Inhibition of the Binding of [^3H]Spiperone to D2 Receptors
The compounds were tested with respect to affinity for the dopamine D2 receptor by determining their ability to inhibit the binding of [^3H]Spiperone to D2 receptors by the method of Hyttel et al. J. Neurochem. 1985, 44, 1615.

[3] = molecular target: T3, D4 receptor (Homo sapiens, UniProt P21917); details: various in vitro efficacy assays, literature; cited from earlier work
T3 sequence (P21917 1-419): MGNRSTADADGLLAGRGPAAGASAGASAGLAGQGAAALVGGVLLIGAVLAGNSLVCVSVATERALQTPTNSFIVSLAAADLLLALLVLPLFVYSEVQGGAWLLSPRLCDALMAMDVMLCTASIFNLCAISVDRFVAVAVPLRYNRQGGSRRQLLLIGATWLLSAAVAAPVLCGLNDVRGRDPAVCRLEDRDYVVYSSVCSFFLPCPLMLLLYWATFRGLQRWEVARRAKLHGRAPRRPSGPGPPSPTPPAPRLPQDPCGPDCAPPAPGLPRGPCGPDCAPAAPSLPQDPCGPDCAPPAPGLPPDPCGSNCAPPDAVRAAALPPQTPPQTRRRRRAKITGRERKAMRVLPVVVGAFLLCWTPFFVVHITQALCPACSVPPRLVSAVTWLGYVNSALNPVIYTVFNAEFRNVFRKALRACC

[4] = inhibition of [3H]Spiperone binding, read-out: D2-Receptor IC50

T2 sequence (P61169 whole entry): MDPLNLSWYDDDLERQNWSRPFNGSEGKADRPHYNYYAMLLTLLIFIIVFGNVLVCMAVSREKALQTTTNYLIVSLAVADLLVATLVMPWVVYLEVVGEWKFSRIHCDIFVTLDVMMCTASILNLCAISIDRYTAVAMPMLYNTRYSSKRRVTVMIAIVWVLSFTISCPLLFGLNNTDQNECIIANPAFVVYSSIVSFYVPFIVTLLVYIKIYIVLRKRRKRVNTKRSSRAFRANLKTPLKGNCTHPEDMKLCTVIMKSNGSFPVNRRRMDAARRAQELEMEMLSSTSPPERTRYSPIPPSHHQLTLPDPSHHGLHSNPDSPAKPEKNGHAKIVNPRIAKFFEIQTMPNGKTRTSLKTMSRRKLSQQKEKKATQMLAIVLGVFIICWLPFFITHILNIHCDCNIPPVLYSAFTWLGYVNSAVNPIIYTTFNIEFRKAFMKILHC

| SMILES | IC50 [1] [nM] | IC50 [2] [nM] | D4-receptor, second figure after the slash in the IC50 cell ([1]; printed as '<50/89', meaning of the second figure not explained) [nM] | IC50 [2, 4] [nM] | Functional activity at the D4 receptor (in words) [3] |
| --- | --- | --- | --- | --- | --- |
| Clc1ccc(N2CCN(Cc3ccc4[nH]ccc4c3)CC2)cc1 [Compound 1a, 5-[[4-(4-chlorophenyl)piperazin-1-yl]methyl]-1H-indole] | 7.5 | 1700 | – | – | – |
| c1cc2cc(CN3CCN(c4ccc5[nH]ccc5c4)CC3)ccc2[nH]1 [Compound 1b, 5-[[4-(5-indolyl)piperazin-1-yl]methyl]-1H-indole] | < 50 | – | 89 | 1000 | – |
| COc1ccc(N2CCN(Cc3ccc4[nH]ccc4c3)CC2)cc1 [Compound 1c, 5-[[4-(4-methoxyphenyl)piperazin-1-yl]methyl]-1H-indole] | 25 | > 10000 | – | – | – |
| c1ccc(N2CCN(Cc3ccc4[nH]ccc4c3)CC2)cc1 [Compound 1d, 5-[[4-phenylpiperazin-1-yl]methyl]-1H-indole] | 31 | – | – | 940 | – |
| Clc1ccc(C2=CCN(Cc3ccc4[nH]ccc4c3)CC2)cc1 [Compound 1e, 5-[4-(4-Chlorophenyl)-3,6-dihydro-2H-pyridin-1-ylmethyl]-1H-indole] | 1.4 | – | – | 190 | – |
| Clc1ccc(N2CCN(Cc3ccc4cc[nH]c4c3)CC2)cc1 [Compound 1f, 6-[[4-(4-chlorophenyl)piperazin-1-yl]methyl]-1H-indole] | – | > 10000 | – | – | – |
| COc1ccc(N2CCN(Cc3ccc4cc[nH]c4c3)CC2)cc1 [Compound 1g, 6-[[4-(4-methoxyphenyl)piperazin-1-yl]methyl]-1H-indole] | 9.1 | > 10000 | – | – | – |
| CC(C)Oc1cccnc1N(C)C1CCN(Cc2ccccc2)CC1 [Compound U-101958] | – | – | – | – | partial D4 receptor agonists |
